Data: ChEMBL document CHEMBL4130465, “Berchemiosides A-C, 2-Acetoxy-ω-phenylpentaene Fatty Acid Triglycosides from the Unripe Fruits of Berchemia berchemiifolia” (J Nat Prod, 2017)
The source made the active and inactive calls. No cut-off for these calls is given here.

What was measured:
[1] = molecular target: Xanthine dehydrogenase/oxidase (Homo sapiens, UniProt P47989); assay: Inhibition of xanthine oxidase (unknown origin) using xanthine as substrate pretreated for 10 mins followed by substrate addition measured every 2 mins for 6 mins; details: for inhibition (INH): human, 0.1 h
HCT-116 [2] = assay: Cytotoxicity against human HCT116 cells up to 100 uM after 48 hrs by MTT assay; type: functional, cell-based
HCT-116 [3] = assay: Cytotoxicity against human HCT116 cells after 48 hrs by MTT assay; type: functional, cell-based; details: HCT-116, 48 h

Sequence of Xanthine dehydrogenase/oxidase (P47989 whole entry): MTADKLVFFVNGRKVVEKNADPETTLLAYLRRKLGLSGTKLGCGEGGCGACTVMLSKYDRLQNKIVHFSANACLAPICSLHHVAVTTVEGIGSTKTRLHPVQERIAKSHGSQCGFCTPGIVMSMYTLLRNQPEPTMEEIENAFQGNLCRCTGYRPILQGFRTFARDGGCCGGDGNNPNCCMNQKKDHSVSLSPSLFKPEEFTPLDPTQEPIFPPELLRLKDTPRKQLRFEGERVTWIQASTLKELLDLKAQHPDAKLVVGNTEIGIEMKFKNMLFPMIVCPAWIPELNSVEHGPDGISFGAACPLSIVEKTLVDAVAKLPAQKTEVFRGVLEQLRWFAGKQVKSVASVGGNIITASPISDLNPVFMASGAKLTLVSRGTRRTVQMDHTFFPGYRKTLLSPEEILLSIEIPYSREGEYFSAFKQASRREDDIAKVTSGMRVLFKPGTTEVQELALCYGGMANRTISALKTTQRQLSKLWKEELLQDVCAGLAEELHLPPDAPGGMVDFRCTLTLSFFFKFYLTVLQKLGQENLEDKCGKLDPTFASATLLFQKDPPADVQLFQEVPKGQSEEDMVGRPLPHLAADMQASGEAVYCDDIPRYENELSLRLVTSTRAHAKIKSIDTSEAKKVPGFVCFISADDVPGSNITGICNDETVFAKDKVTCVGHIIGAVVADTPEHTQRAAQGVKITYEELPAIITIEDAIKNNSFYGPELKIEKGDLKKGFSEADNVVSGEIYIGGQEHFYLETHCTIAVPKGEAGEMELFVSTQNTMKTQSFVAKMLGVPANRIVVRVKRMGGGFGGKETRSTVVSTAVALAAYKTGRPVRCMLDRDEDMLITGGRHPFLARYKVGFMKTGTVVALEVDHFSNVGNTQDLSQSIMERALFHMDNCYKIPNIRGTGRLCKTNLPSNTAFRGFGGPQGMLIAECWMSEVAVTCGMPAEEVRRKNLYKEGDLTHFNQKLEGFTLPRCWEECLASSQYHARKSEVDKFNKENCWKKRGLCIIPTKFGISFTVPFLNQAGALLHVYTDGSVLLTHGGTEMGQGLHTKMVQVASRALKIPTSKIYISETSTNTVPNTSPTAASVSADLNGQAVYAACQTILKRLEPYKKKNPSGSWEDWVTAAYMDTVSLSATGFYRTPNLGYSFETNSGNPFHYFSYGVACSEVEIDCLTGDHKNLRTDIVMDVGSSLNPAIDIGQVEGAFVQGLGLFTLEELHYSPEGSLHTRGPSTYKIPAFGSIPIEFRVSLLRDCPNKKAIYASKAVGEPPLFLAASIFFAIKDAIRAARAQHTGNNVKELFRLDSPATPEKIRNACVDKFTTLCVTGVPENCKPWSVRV

| inhibition (INH) [1] | SMILES | Activity (HCT-116 [2]) | also measured |
| --- | --- | --- | --- |
|  | O=C1C[C@H](c2ccc(O)cc2)Oc2cc(O)cc(O[C@@H]3O[C@H](CO)[C@@H](O)[C@H](O)[C@H]3O[C@@H]3O[C@H](CO)[C@@H](O)[C@H](O)[C@H]3O)c21 |  | IC50 [1]: 95.4 µM |
| Not Active | O=C1C[C@H](c2ccc(O)c(O)c2)Oc2cc(O)cc(O[C@@H]3O[C@H](CO)[C@@H](O)[C@H](O)[C@H]3O[C@@H]3O[C@H](CO)[C@@H](O)[C@H](O)[C@H]3O)c21 |  |  |
|  | C[C@@H]1O[C@@H](OC[C@H]2O[C@@H](Oc3ccc(C=O)cc3)[C@H](O)[C@@H](O)[C@@H]2O)[C@H](O)[C@H](O[C@@H]2O[C@H](COC(=O)/C=C/c3ccccc3)[C@@H](O)[C@H](O)[C@H]2O)[C@H]1O | inactive |  |
| Not Active | O=C1C[C@@H](c2ccc(O)c(O)c2)Oc2cc(O)cc(O[C@@H]3O[C@H](CO)[C@@H](O)[C@H](O)[C@H]3O[C@@H]3O[C@H](CO)[C@@H](O)[C@H](O)[C@H]3O)c21 |  |  |
|  | CC(=O)O[C@H](CCC/C=C/C=C/C=C/C=C/C=C/c1ccc(O[C@@H]2O[C@H](CO[C@@H]3O[C@@H](C)[C@H](O)[C@@H](O[C@@H]4O[C@H](COC(=O)/C=C/c5ccccc5)[C@@H](O)[C@H](O)[C@H]4O)[C@H]3O)[C@@H](O)[C@H](O)[C@H]2O)cc1)C(=O)O | inactive |  |
| Not Active | COc1cc2oc(-c3ccc(O)cc3)cc(=O)c2c(O)c1[C@@H]1O[C@H](CO)[C@@H](O)[C@H](O)[C@H]1O [SWERTISIN] |  |  |
|  | CC(=O)O[C@H](CCC/C=C/C=C/C=C\C=C/C=C/c1ccc(O[C@@H]2O[C@H](CO[C@@H]3O[C@@H](C)[C@H](O)[C@@H](O[C@@H]4O[C@H](CO)[C@@H](O)[C@H](O)[C@H]4O)[C@H]3O)[C@@H](O)[C@H](O)[C@H]2O)cc1)C(=O)O | inactive |  |
| Not Active | COc1cc2oc(-c3ccc(O)c(O)c3)cc(=O)c2c(O)c1[C@@H]1O[C@H](CO)[C@@H](O)[C@H](O)[C@H]1O |  |  |
|  | CC(=O)O[C@@]12CO[C@@H]1C[C@H](O)[C@@]1(C)C(=O)[C@H](O)C3=C(C)[C@@H](OC(=O)[C@H](O)[C@@H](NC(=O)OC(C)(C)C)c4ccccc4)C[C@@](O)([C@@H](OC(=O)c4ccccc4)[C@H]21)C3(C)C [DOCETAXEL ANHYDROUS] |  | IC50 (HCT-116 [3]): 0.13 µM |
|  | CC(=O)O[C@H](CCC/C=C/C=C/C=C/C=C/C=C/c1ccc(O[C@@H]2O[C@H](CO[C@@H]3O[C@@H](C)[C@H](O)[C@@H](O[C@@H]4O[C@H](COC(=O)/C=C/C=C/c5ccccc5)[C@@H](O)[C@H](O)[C@H]4O)[C@H]3O)[C@@H](O)[C@H](O)[C@H]2O)cc1)C(=O)O | inactive |  |
| Not Active | O=c1c(O[C@@H]2O[C@H](CO)[C@@H](O)[C@H](O)[C@H]2O[C@@H]2O[C@H](CO)[C@@H](O)[C@H](O)[C@H]2O)c(-c2ccc(O)c(O)c2)oc2cc(O)cc(O)c12 |  |  |
